Results taken from the NIST ThermoML archive (doi:10.1016/j.jct.2012.02.006).
± gives the expanded uncertainty stated by the source.

Test: molar heat capacity at constant pressure
Settings: 298.15 K; 101.33 kPa; Liquid; Small sample (50 mg) DSC

SMILES	molar heat capacity at constant pressure
CCCCCC[C@@H](O)C/C=C\CCCCCCCC(=O)O [[R]-12-hydroxy-cis-9-octadecenoic acid]	626.77 ± 63 J/K/mol
CCCCCC[C@@H](O)CC=CCCCCCCCC(=O)OC [[R]-methyl 12-hydroxy-9-octadecenoate]	696.53 ± 70 J/K/mol
